Drawing on ChEMBL document CHEMBL4739717, “Methods of treating cartilage disorders through inhibition of clk and dyrk” (2020), this text covers Emax, EC50 and Activity for 9 compounds.

Assay [1] can be described thus: Induction of chondrogenesis in human MSC assessed as maximum activity at 185.19 nM incubated for 6 days by rhodamine B and Nile red staining based imaging analysis relative to control. The assay is classed as functional. The following applies: BMMSC, 144 h, time 6 day.
Assay [2] can be described thus: Effect on Wnt signaling pathway in human SW480 cells harbouring TCF/LEF luciferase reporter gene and SP5-Luc reporter gene incubated for 36 to 48 hrs by luminescence assay. The assay is classed as cell-based.
For assay [3], the target named is Dual specificity tyrosine-phosphorylation-regulated kinase 1A (Homo sapiens, UniProt Q13627). As to the kind of experiment: Inhibition of recombinant DYRK1A (unknown origin) using Ser/Thr 18 peptide as substrate incubated for 1 hr in presence of ATP by FRET assay.
For assay [4], the system named is Chondrocyte. The assay can be described thus: Inhibition of IL1-beta induced MMP-13 expression levels in human chondrocytes assessed as MMP-13 levels incubated for 2hrs followed by IL1-beta stimulation and measured after 24 hrs by qRT-PCR analysis. The assay is classed as functional. As to conditions: time 26.0 hrs.
Assay [5] is described as follows: Inhibition of IL1-beta induced MMP3 expression levels in human chondrocytes assessed as MMP3 levels incubated for 2hrs followed by IL1-beta stimulation and measured after overnight incubation by LANCE assay. Type of assay: functional, cell-based. As to conditions: Chondrocyte.
The subject of assay [6] is Chondrocyte. As to the kind of experiment: Inhibition of IL1-beta induced MMP3 expression levels in human chondrocytes assessed as MMP3 levels incubated for 2hrs followed by IL1-beta stimulation and measured after 24 hrs by qRT-PCR analysis. The following applies: time 26.0 hrs. The assay is classed as functional. In general terms: In qPCR the cycle at which signal appears reflects the starting amount.

Assay [7] is described as follows: Induction of chondrogenesis in human MSC assessed as maximum activity at 900 nM incubated for 6 days by rhodamine B and Nile red staining based imaging analysis relative to control. Type of assay: functional. As to conditions: BMMSC, 144 h, time 6 day.
Assay [8] can be described thus: Induction of chondrogenesis in human MSC assessed as maximum activity at 1700 nM incubated for 6 days by rhodamine B and Nile red staining based imaging analysis relative to control. The assay is classed as functional. The following applies: BMMSC, 144 h, time 6 day.
The nature of assay [9]: Induction of chondrogenesis in human MSC assessed as incubated for 6 days by rhodamine B and Nile red staining based imaging analysis. Type of assay: functional. The following applies: bmmsc.
Assay [10] concerns the target Dual specificity protein kinase CLK3 (Homo sapiens, UniProt P49761). As to the kind of experiment: Inhibition of recombinant CLK3 (unknown origin) using Ser/Thr 18 peptide as substrate incubated for 1 hr in presence of ATP by FRET assay.
The target in assay [11] is Dual specificity protein kinase CLK2 (Homo sapiens, UniProt P49760). The assay can be described thus: Inhibition of recombinant CLK2 (unknown origin) using Ser/Thr 6 peptide as substrate incubated for 1 hr in presence of ATP by FRET assay.
A short description of assay [12]: Induction of chondrogenesis in human MSC assessed as maximum activity at 5000 nM incubated for 6 days by rhodamine B and Nile red staining based imaging analysis relative to control. The following applies: BMMSC, 144 h, time 6 day. Type of assay: functional.
Assay [13] is described as follows: Induction of chondrogenesis in human MSC assessed as maximum activity at 61.73 nM incubated for 6 days by rhodamine B and Nile red staining based imaging analysis relative to control. Type of assay: functional. As to conditions: BMMSC, 144 h, time 6 day.

Structures are written as SMILES. pEC50: −log10 of the molar value. Active and inactive are the calls of the source. The rule behind the calls is not given here.

Chain of Dual specificity protein kinase CLK3 (P49761 whole entry): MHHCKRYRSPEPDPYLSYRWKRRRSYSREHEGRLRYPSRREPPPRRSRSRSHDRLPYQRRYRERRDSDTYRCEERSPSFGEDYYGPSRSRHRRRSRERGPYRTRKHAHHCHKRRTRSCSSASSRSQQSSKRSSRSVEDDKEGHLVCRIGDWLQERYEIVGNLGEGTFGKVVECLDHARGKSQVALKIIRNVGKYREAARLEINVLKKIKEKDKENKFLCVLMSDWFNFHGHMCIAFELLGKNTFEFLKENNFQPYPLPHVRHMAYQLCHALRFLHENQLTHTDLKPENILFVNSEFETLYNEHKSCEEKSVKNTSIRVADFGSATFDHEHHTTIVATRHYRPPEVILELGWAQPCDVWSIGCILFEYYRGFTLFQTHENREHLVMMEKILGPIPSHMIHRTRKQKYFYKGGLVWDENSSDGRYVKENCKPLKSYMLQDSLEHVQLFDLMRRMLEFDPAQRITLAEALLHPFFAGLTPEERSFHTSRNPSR
Chain of Dual specificity protein kinase CLK2 (P49760 whole entry): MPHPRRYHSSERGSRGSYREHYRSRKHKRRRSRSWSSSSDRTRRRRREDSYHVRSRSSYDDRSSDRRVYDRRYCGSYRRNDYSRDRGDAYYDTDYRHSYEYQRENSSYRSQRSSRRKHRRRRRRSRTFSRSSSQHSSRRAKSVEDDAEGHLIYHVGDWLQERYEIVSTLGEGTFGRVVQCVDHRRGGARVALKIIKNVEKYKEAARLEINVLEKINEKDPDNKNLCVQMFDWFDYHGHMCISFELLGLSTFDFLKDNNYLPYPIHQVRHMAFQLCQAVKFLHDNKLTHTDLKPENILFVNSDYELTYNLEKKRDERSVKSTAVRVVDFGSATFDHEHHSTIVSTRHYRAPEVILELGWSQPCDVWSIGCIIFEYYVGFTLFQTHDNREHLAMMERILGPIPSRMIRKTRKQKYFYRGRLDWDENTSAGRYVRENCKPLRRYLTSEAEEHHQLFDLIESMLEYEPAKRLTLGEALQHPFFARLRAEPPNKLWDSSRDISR

For `CCCC(=O)Nc1cncc(-c2ccc3[nH]nc(-c4nc5c(-c6ccncc6)cncc5[nH]4)c3n2)c1`, the maximal response (Emax) (usually the size of the effect at its maximum, as opposed to the concentration needed) at 0.18519 µM in [1] stood at 31%. For the same compound, the pEC50 (as a rule, the negative decadic logarithm of the EC50, by convention in mol/L) in [2] was 6.00; in [3], 7.89.

For the compound `Fc1ccc(-c2nnc(-c3n[nH]cc3/C=C/c3cccnc3)o2)cc1`, the result in assay [4] and in assay [6] was inactive. Also, the negative logarithm of the EC50 (pEC50) was 5.52 in assay [5], 5.82 in [2] and 7.82 in assay [3]. Further, in assay [7], the Emax at 0.9 µM worked out at 23.4%.

In the case of `CN(C)C(=O)Nc1cncc(-c2cnc3[nH]nc(-c4nc5c(-c6cccc(F)c6)cncc5[nH]4)c3c2)c1`, the pEC50 in [5] was 7.39; in [2], 8.00; in [3] it was 8.40. In addition, the Emax at 0.9 µM in [7] worked out at 68.1%.

Turning to `c1cc2cc(c1)-c1cncc3[nH]c(nc13)-c1n[nH]c3ccc(cc13)-c1cncc(c1)CNC2`, in assay [8], the Emax at 1.7 µM stood at 588%. Moreover, the pEC50 in assay [2] was 7.38; in assay [9] it was 6.70.

Take `Oc1cncc(-c2ccc3[nH]nc(-c4nc5c(-c6cccc(F)c6)nccc5[nH]4)c3n2)c1`: in assay [1], the Emax at 0.18519 µM is 56.7%. Also, the pEC50 in assay [2] was 6.34; in assay [9] it was 8.16; in [3], 7.62.

Turning to `COc1cncc(C(=O)Nc2c[nH]nc2C(=O)Nc2ccc(N3CCC(F)(F)C3)nc2)c1`, the pEC50 is 8.66 in [5]; 8.24 in assay [2]; below 5.00 in assay [10]; 6.52 in assay [9]; 7.85 in [3]. Also, the maximum response (Emax) at 0.9 µM in assay [7] worked out at 124%.

`CN1CCCCN(C)c2nccc3[nH]c(nc23)-c2c[nH]c3ccc(cc23)-c2cncc(c2)C1`: the pEC50 in assay [11] is 8.70; in assay [2] it was 6.24; in assay [10], 7.92; in [9] it was 5.30; in [3], 8.70. Moreover, the Emax at 5 µM in assay [12] worked out at 231%.

As to `COc1cncc(-c2ccc3[nH]nc(-c4nc5c(-c6cccc(F)c6)cncc5[nH]4)c3n2)c1`, the values for the negative logarithm of the EC50 (pEC50) in assay [9] and in assay [3] were 7.69 and 7.40, respectively. Moreover, the maximum response (Emax) at 0.06173 µM in assay [13] came to 55.5%.

On to `O=C(Nc1cccnc1)c1n[nH]c2ccc(-c3cncc(CN4CC5CC(C4)O5)c3)cc12`, for which the results for the pEC50 in assay [5], in assay [2] and in [9] were 5.52, 7.17 and 6.05, respectively. For the same compound, the Emax at 0.9 µM in [7] turned out to be 121%.
